Data published in US7811797B2, “α-isomaltosylglucosaccharide-forming enzyme, process and uses of the same” (Kabushiki Kaisha Hayashibara Seibutsu Kagaku Kenkyujo, priority 2000, dated 2010).
Like-named read-outs stand apart in the source and are kept apart here.

Assays:
[1] = molecular target: T1, Salivary amylase (Homo sapiens, UniProt P0DUB6); test: Digestion test in vitro, salivary amylase
T1 sequence (P0DUB6 16-511): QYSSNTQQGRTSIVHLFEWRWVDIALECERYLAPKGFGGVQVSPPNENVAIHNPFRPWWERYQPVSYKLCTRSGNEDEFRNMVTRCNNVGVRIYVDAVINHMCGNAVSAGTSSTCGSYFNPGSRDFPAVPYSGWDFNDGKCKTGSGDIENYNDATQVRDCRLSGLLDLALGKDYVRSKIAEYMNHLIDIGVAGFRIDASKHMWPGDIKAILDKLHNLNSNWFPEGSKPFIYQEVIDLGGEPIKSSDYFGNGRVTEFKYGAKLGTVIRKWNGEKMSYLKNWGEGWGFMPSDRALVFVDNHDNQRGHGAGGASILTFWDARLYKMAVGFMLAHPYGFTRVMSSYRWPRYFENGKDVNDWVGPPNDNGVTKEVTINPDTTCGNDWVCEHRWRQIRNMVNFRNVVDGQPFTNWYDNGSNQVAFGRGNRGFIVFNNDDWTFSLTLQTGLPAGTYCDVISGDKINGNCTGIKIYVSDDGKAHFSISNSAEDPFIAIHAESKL

[2] = system: α-isomaltosylglucosaccharide-forming enzyme; test: Action on saccharides (substrates), Enzyme of Strain C11; type: biochemical, Bacillus globisporus C11; design: key: −: it showed no change; +: it showed a slight reduction of the color spot of the substrate and the formation of other reaction product; ++: it showed a high reduction of the color spot of the substrate and the formation of other reaction product; +++: it showed a substantial disappearance of the substrate spot and the formation of other reaction product; details: two units/g substrate, substrate 2% (w/v), 30° C., pH 6.0, 24 hours, TLC
In short: (§1)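 Purified enzyme from each strain was added at 2 units/g substrate to each of 24 saccharides at 2% (w/v). Incubation ran 24 h at 30° C, pH 6.0, or pH 8.4 for the A19 enzyme. TLC compared reaction mixtures before and after incubation to show whether each substrate was acted on.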

[3] = Digestion test in vitro, synthetic gastric juice
[4] = system: α-isomaltosylglucosaccharide-forming enzyme; test: Action on saccharides (substrates), Enzyme of Strain N75; type: biochemical, Bacillus globisporus N75; design: key: −: it showed no change; +: it showed a slight reduction of the color spot of the substrate and the formation of other reaction product; ++: it showed a high reduction of the color spot of the substrate and the formation of other reaction product; +++: it showed a substantial disappearance of the substrate spot and the formation of other reaction product; details: two units/g substrate, substrate 2% (w/v), 30° C., pH 6.0, 24 hours, TLC
In short: as §1

[5] = system: Clostridium perfringens JCM 3816; type: cell-based; details: PYF medium with 0.5% saccharide, 37° C., four days, anaerobic
[6] = molecular target: T1, Salivary amylase
[7] = system: internal content of rat cecum; test: Fermentation test by internal content of rat cecum; type: in vitro ADME
Protocol: The internal content of rat cecum was collected by anesthetizing a Wister male rat with ether, allowing the rat to die, collecting the internal content under anaerobic conditions, and suspending the resultant with 4-fold volumes of a 0.1 M aqueous solution of sodium bicarbonate. Cyclotetrasaccharide was added in an amount of about 7% by weight to the internal content of rat cecum, and the contents of cyclotetrasaccharide still remained just after and 12 hours after the addition of the internal content was quantified on gas chromatography. As a result, the contents of cyclotetrasaccharide of the former and latter were respectively 68.0 mg and 63.0 mg per one gram of the internal content of rat cecum.

Row | Compound | Decomposition percentage (%) by digestive enzyme [1] [%] | Enzymatic action, Enzyme of Strain C11 [2] | Decomposition percentage (%) by digestive enzyme [3] [%] | Enzymatic action, Enzyme of Strain N75 [4] | Assimilability [5] | Decomposition percentage (%) by digestive enzyme [6] [%] | content of cyclotetrasaccharide remained ([7]; 12 hours after the addition) | content of cyclotetrasaccharide remained ([7]; just after the addition, about 7% by weight added)
1 | OC[C@@H](O)[C@@H](O[C@H]1O[C@H](CO)[C@@H](O)[C@H](O)[C@H]1O)[C@H](O)[C@@H](O)CO [Maltitol, reference compound] | 0.0 | − | 0.0 | − |  |  |  | 
2 | OCC1OC2OCC3O[C@H](O[C@H]4C(O)C(CO)OC(OCC5O[C@H](O[C@@H](C1O)C2O)C(O)C(O)[C@@H]5O)C4O)C(O)C(O)[C@@H]3O (stereo partly drawn) [Cyclotetrasaccharide, cyclo{→6)-α-D-glucopyranosyl-(1→3)-α-D-glucopyranosyl-(1→6)-α-D-glucopyranosyl-(1→3)-α-D-glucopyransoyl-(1→}] |  |  |  |  | − (judged negative (−) when the post culture had a pH of 6.0 or higher) | 0.0 | 63.0 mg per one gram of the internal content of rat cecum | 68.0 mg per one gram of the internal content of rat cecum
